Experimental data: patent publication EP0230013A1, “New anthracycline derivatives, uses thereof as antitumor agent and production thereof” (ZAIDAN HOJIN BISEIBUTSU KAGAKU KENKYU KAI, priority 1985, dated 1987)
Read-outs that look alike come from different tables or passages of the source.

How the values were obtained:
Leukemia P 388 = conditions: cited from earlier work
Leukemia L-1210 = conditions: dosage of 25 mg/kg, single dose per day, intraperitoneally for 9 days, Leukemia L-1210 mice; cited from earlier work
Leukemia L-1210 cells = assay: Antitumor activity on leukemia in mice caused by Leukemia L-1210 cells (Test I); format: in vivo; design: key: *: shows that a toxicity or its sign of the compound tested in the animals tested such as death due to toxicity or weight loss was observed; conditions: L-1210 mice
Procedure: Antitumor activity on leukemia in CDF, mice caused by Leukemia L-1210 cells
In this test, Compound Nos. I and 2 of this invention were assessed in comparison with daunomycin and adriamycin on their tumor inhibitory activity against leukemia in mice. Thus, CDF, mice were intraperitoneally transplanted with cells of Leukemia L-1210 (I ^x 10^5 cells/mouse). From 24 hours after i.p. transplantation of L 1210 cells, each compound to be tested was administered intraperitoneally for 9 consecutive days at once per day. Observation was made for 60 days where survival days of each mouse tested were recorded and percentage increase in lifespan of the treated mice, in comparison with control test wherein mice were treated only, with the administration of physiological saline, was calculated as T/C % where T is the mean survival days of the treated animals and C is the mean survival days of the untreated control animals.The test results are shown in Table I.

[1] = Acid hydrolysis of the glycoside linkage, analysed by TLC (Test 2); format: physicochemical
Source text: A further advantage of the anthracycline derivatives of formula (I) according to this invention is in that the susceptibility of the glycoside linkage to be broken by acid hydrolysis is very low. This is, we believe, to be one of reasons why the compounds of this invention are of low toxicity. […] Of course, a high chemical stability of a compound in vitro is not always related to its stability against hydrolysis in vivo, but it may be assumed in view of high anticancer effects in vivo of the compounds of this invention that the glycoside linkage of those compounds is of high stability in vivo, too. In any case, it is true that such high chemical stability of the glycoside linkage of the compounds of this invnetion is advantageous in that it makes the handling of those compounds easy in chemical applications. Test 2 given below illustrates the high stability of the glycoside linkage of the compounds of this invention.
Daunomycin (I mg) was dissolved in a mixture (0.1 ml) of 0.2 N^*HCI-80% CH3CN-H,O (^* the 0.2 N concentration of HCI being of the said mixture) and the solution was heated in an oil bath at 61 -62°C for 30 minutes to cause the hydrolysis. […] The reaction solution was allowed to stand at room temperature to deposit daunomycinone as red crystals.
FTDM (0.7 mg) was suspended in a mixture (0.1 ml) of 0.2 N HCI-80% CH,CN-H20 and the suspension was stirred in an oil bath at 61 -62°C for 30 minutes.
A futher amount (0.3 ml) of the mixture of 0.2N HCI-80% CH3CN-H20 was added to the reaction mixture, when the mixture substantially became a solution with a little amount of insolubles. Then, it was heated to 61-62°C under stirring to give a homogeneous solution.

[2] = Dose 5 mg/kg/day i.p. for 9 days
[3] = 0.2 N HCl-80% CH3CN-H2O, 61 -62°C (about 60°C), 30 minutes

In the case of `COc1cccc2c1C(=O)c1c(O)c3c(c(O)c1C2=O)C[C@@](O)(C(C)=O)C[C@@H]3O[C@@H]1O[C@@H](C)[C@H](OC(C)=O)[C@@H](OC(C)=O)[C@H]1I` [Compound NSC 331,962, 7-O-(3,4-di-O-acetyl-2,6-dideoxy-2-iodo-a-L-mannohexopyranosyl) daunomycinone], the “increase (in %) of survival days of the mice treated, compared to the mice untreated (T/C, %)” value (Leukemia P 388; dosage of 50 mg/kg, Leukemia P 388 mice) is given as 247% and the “increase (in %) of survival days of the mice treated, as compared to the mice untreated (T/C, %)” value (Leukemia L-1210) is given as 196%.
In the case of `COc1cccc2c1C(=O)c1c(O)c3c(c(O)c1C2=O)C[C@@](O)(C(C)=O)C[C@@H]3O[C@H]1C[C@H](N)[C@H](O)[C@H](C)O1` [Daunomycin, daunomycin], the “toxicity or its sign (death due to toxicity or weight loss)” value (Leukemia L-1210 cells; Dose 2.5 mg/kg/day i.p. for 9 days) was “*”, the “toxicity or its sign (death due to toxicity or weight loss)” value (Leukemia L-1210 cells; [2]) was “*” and the “acid hydrolysis (TLC)” value [1, 3] was “disappearance of the spot of daunomycin”. For the same molecule, the “acid hydrolysis (TLC)” value ([1]; 0.2 N HCl-80% CH3CN-H2O, 61 -62°C (about 60°C), 30 minutes, listed as daunomycin) was “completely decomposed”.
In the case of `COc1cccc2c1C(=O)c1c(O)c3c(c(O)c1C2=O)C[C@@](O)(C(C)=O)C[C@@H]3O[C@@H]1O[C@@H](C)[C@@H](O)[C@@H](O)[C@H]1F` [Compound No. 1, 7-O-(2,6-dideoxy-2-fluoro-α-L-talopyranosyl)daunomycinone], the “acid hydrolysis (TLC)” value [1, 3] was “presence of the spot of FTDM only”, the “acid hydrolysis (TLC)” value ([1]; 0.2N HCl-80% CH3CN-H2O, 61-62°C, further 3 hours) was “the spot of FTDM only” and the “acid hydrolysis (TLC)” value ([1]; 1 N HCl in acetonitrile-water (4:1), 61-62°C (about 60°C), 8 hours, listed as Compound No. I) was “remains substantially as it is,without being decomposed”. For the same molecule, the “acid hydrolysis (TLC)” value ([1]; 1 N HCl in acetonitrile-water (4:1), 61-62°C (about 60°C), 8 hours, listed as FTDM) was “a spot of a trace amount of daunomycinone appeared, but most of FTDM was also present as it was”.
For `COc1cccc2c1C(=O)c1c(O)c3c(c(O)c1C2=O)C[C@@](O)(C(C)=O)C[C@@H]3O[C@@H]1O[C@@H](C)[C@@H](OC(C)=O)[C@@H](OC(C)=O)[C@H]1I` [Compound NSC 327,472, 7-O-(3,4-di-O-acetyl-2,6-dideoxy-2-iodo-a-L-talohexopyranosyl)daunomycinone], the “increase (%) of survival days of the Leukemia P 388-inoculated mice treated” value (Leukemia P 388; dosage of 12.5 mg/kg to 25 mg/kg) is given as 172% and the “increase (%) of survival days of the Leukemia P 388-inoculated mice treated” value (Leukemia P 388; dosage of 150 mg/kg) is given as 162%.
For `COc1cccc2c1C(=O)c1c(O)c3c(c(O)c1C2=O)C[C@@](O)(C(=O)CO)C[C@@H]3O[C@H]1C[C@H](N)[C@H](O)[C@H](C)O1` [Adriamycin, adriamycin], the “toxicity or its sign (death due to toxicity or weight loss)” value (Leukemia L-1210 cells; [2]) was “*”.
